Laboratory results published in patent US8148421B2, “Phenylacetic acid derivative” (Fuji Yakuhin Co., Ltd., priority 2006, dated 2012).

tested on: PGE2 production in A549 cells; experiment: Suppressing action against PGE2 production in human cultured cells (A549, IL-1β-induced cyclooxygenase 2, arachidonic acid added); format: cell-based; details: 10 μM test substance, PGE2 in medium by EIA, duplicate
Experimental: In Vitro Evaluation Method (Suppressing Action Against PGE2 Production in Human Cultured Cells)
A549 cells were inoculated on a 24-well plate (10^5 cells/ml/well), and cultured for 1 day in the Ham's F-12 medium containing 10% fetal bovine serum (FBS). The medium was removed, and the cells were washed with Dulbecco's phosphate buffered saline (PBS), and then cultured for 3 days in the Ham's F-12 medium containing 1 ng/ml of a recombinant human IL-1β and FBS to induce cyclooxygenase 2. After the medium was removed, and the cells were washed with PBS, 0.99 ml of the Ham's F-12 mediums containing a test substance (dissolved in dimethyl sulfoxide at a final concentration of 1% and added) and […] L-glutathione reduced was added to the cells, and the cells were incubated at 37° C. for 30 minutes in a 5% CO2 incubator. To the culture was added 10 μl of a 0.5 mg/ml solution of arachidonic acid in ethanol (final concentration: 5 μg/ml), and the reaction was performed by incubating the culture at 37° C. and 50 rpm for 30 minutes. After completion of the reaction, the medium was immediately collected, and the PGE2 concentration in the medium was measured by using Prostaglandin E2 Express EIA Kit (Cayman Chemical). Dimethyl sulfoxide not containing the test substance was added to a blank and a control, and ethanol not containing arachidonic acid was added to the blank to perform the reaction. The experiment was performed in duplicate. The suppression rate of the test substance based on the control was calculated by using the following equation. Suppression rate (100%)=100×[1−(PGE2 concentration in medium containing test substance−PGE2 concentration in medium of blank)/(PGE2 concentration in medium of control−PGE2 concentration in medium of blank)]

SMILES | PGE2 production suppression rate at 10 μM, Suppression rate (%)
CC(C(=O)O)c1ccc(CC2SCCC2O)cc1 (single isomer, unassigned) [Example 27-B, 2-[4-(3-Hydroxythiolan-2-ylmethyl)phenyl]propionic Acid] | 76.3
CC(C(=O)O)c1ccc(CC2SCCC2O)cc1 (single isomer, unassigned) [Example 27-A, 2-[4-(3-Hydroxythiolan-2-ylmethyl)phenyl]propionic Acid] | 40.0
CC(C(=O)O)c1ccc(CC2CCCC2O)cc1 (centres unmarked) [LXP-2a, reference compound] | 92.0

same assay, conditions: Homo sapiens, A549, 0.5 h, 10 μM test substance, PGE2 in medium by EIA, duplicate, read-out: PGE2 production suppression rate at 10 μM, Suppression rate (%)

SMILES | inhibition at 10 µM [%]
CC(C(=O)O)c1ccc(/C=C2/CCCS2)cc1 (centres unmarked) [Example 37, 2-[4-(Thiolan-2-ylidenemethyl)phenyl]propionic Acid] | 89.7
CC(C(=O)O)c1ccc(/C=C2\CSCC2=O)cc1 (centres unmarked) [Example 23, 2-[4-(4-Oxothiolan-3-ylidenemethyl)phenyl]propionic Acid] | 102
CC(C(=O)O)c1ccc(/C=C2\SCCC2O)c([N+](=O)[O-])c1 (centres unmarked) [Example 57, 2-[4-(3-Hydroxythiolan-2-ylidenemethyl)-3-nitrophenyl]propionic Acid] | 91.6
CC(C(=O)O)c1ccc(/C=C2\CCSC2=O)cc1 (centres unmarked) [Example 35, 2-[4-(2-Oxothiolan-3-ylidenemethyl)phenyl]propionic Acid] | 44
CC(C(=O)O)c1ccc(/C=C2\SCCC2O)cc1 (centres unmarked) [Example 18, 2-{4-[3-Hydroxythiolan-(Z)-2-ylidenemethyl]phenyl}propionic Acid] | 99.5
CC(C(=O)O)c1ccc(CC2SCCC2=O)cc1 (centres unmarked) [Example 26, 2-[4-(3-Oxothiolan-2-ylmethyl)phenyl]propionic Acid] | 79.6
CC(C(=O)O)c1ccc(CC2CSCC2=O)cc1 (centres unmarked) [Example 8, 2-[4-(4-Oxothiolan-3-ylmethyl)phenyl]propionic Acid] | 66.4
CC(C(=O)O)c1ccc(/C=C2\SCCC2=O)cc1 (centres unmarked) [Example 14, 2-{4-[3-Oxothiolan-(Z)-2-ylidenemethyl]phenyl}propionic Acid] | 98.5
CC(C(=O)O)c1cccc(/C=C2\SCCC2O)c1 (centres unmarked) [Example 69, 2-[3 (3-Hydroxythiolan-2-ylidenemethyl)phenyl]propionic Acid] | 22.8
O=C(O)Cc1ccc(/C=C2\SCCC2=O)cc1 [Example 29, 4-(3-Oxothiolan-2-ylidenemethyl)phenylacetic Acid] | 96.8
CCOC(=O)C(C)c1ccc(/C=C2\SCCC2=O)cc1 (centres unmarked) [Example 15, Ethyl 2-{4-[3-oxothiolan-(Z)-2-ylidenemethyl]phenyl}propionate] | 36.9
C[C@@H](C(=O)O)c1ccc(/C=C2\SCC[C@@H]2O)cc1 [Example 19-D, (2R,3′S)-2-{4-[3-Hydroxythiolan-(Z)-2-ylidenemethyl]phenyl}propionic Acid] | 44.5
CC(C(=O)O)c1ccc(/C=C2\SCCCC2O)cc1 (centres unmarked) [Example 5, 2-[4-(3-Hydroxythian-2-ylidenemethyl)phenyl]propionic Acid] | 68.4
CC(C(=O)O)c1ccc(/C=C2\SCCCC2=O)cc1 (centres unmarked) [Example 4, 2-[4-(3-Oxothian-2-ylidenemethyl)phenyl]propionic Acid] | 77.8
C[C@H](C(=O)O)c1ccc(/C=C2\SCC[C@@H]2O)cc1 [Example 19-C, (2S,3′S)-2-{4-[3-Hydroxythiolan-(Z)-2-ylidenemethyl]phenyl}propionic Acid] | 101
O=C(O)Cc1ccc(/C=C2\SCCC2O)cc1 (centres unmarked) [Example 31, 4-(3-Hydroxythiolan-2-ylidenemethyl)phenylacetic Acid] | 85.9
CC(C(=O)O)c1ccc(/C=C2\CSCC2O)cc1 (centres unmarked) [Example 22, 2-[4-(4-Hydroxythiolan-3-ylidenemethyl)phenyl]propionic Acid] | 99.7
COc1cc(/C=C2\SCCC2O)ccc1C(C)C(=O)O (centres unmarked) [Example 53, 2-[4-(3-Hydroxythiolan-2-ylidenemethyl)-2-methoxyphenyl]propionic Acid] | 72.8
CC(C(=O)O)c1ccc(/C=C2\SCCC2(F)F)cc1 (centres unmarked) [Example 25, 2-[4-(3,3-Difluorothiolan-2-ylidenemethyl)phenyl]propionic Acid] | 73.3
CC(C(O)=S)c1ccc(CC2CSCC2=O)cc1 (centres unmarked) [Example 11, 2-[4-(4-Oxothiolan-3-ylmethyl)phenyl]thiopropionic Acid] | 49.2
CC(C(=O)O)c1ccc(CC2CSCC2O)cc1 (centres unmarked) [Example 9-A, 2-[4-(4-Hydroxythiolan-3-ylmethyl)phenyl]propionic Acid] | 34.7
CC(C(=O)O)c1ccc(/C=C2\SCCC2O)c(Cl)c1 (centres unmarked) [Example 65, 2-[3-Chloro-4-(3-hydroxythiolan-2-ylidenemethyl)phenyl]propionic Acid] | 101
CC(C(=O)O)c1ccc(CC2C=CSC2)cc1 (centres unmarked) [Example 10, 2-[4-(2,3-Dihydrothiophen-3-ylmethyl)phenyl]propionic Acid] | 69.4
CC(C(=O)OC(C)(C)C)c1ccc(/C=C2\SCCC2=O)cc1 (centres unmarked) [Example 13, tert-Butyl 2-{4-[3-oxothiolan-(Z)-2-ylidenemethyl]phenyl}propionate] | 48
C[C@H](C(=O)O)c1ccc(/C=C2/C=CCS2)cc1 [Example 20, (2S)-2-[4-(2,5-Dihydrothien-(Z)-2-ylidenemethyl)phenyl]propionic Acid] | 94.5
CC(C(=O)O)c1ccc(/C=C2\SCCC2O)c(F)c1 (centres unmarked) [Example 61, 2-[3-Fluoro-4-(3-hydroxythiolan-2-ylidenemethyl)phenyl]propionic Acid] | 92.8

tested on: CPA-induced rat pollakiuria model; experiment: Anti-pollakiuria effect in cyclophosphamide (CPA)-induced rat pollakiuria model; format: in vivo; details: oral administration, male SD rats, CPA 150 mg/kg i.p., urination frequency over 3 hours, probit method
Experimental: 1. Anti-Pollakiuria Effect in Cyclophosphamide (CPA)-Induced Rat Pollakiuria Model
To 7-week old male SD rats, 150 mg/kg of CPA was intraperitoneally administered, and the rats were starved for 24 hours, and then used for the test. Thirty minutes after the oral administration of the test substance, physiological saline (30 ml/kg) was orally administered, the rats were put into a metabolism cage for rats, and then frequency of urination was counted for 3 hours. For the counting of the frequency of urination, a weighing dish hung from an FD pickup was disposed at a urine outlet at the lower part of the metabolism cage, and frequency of urination was obtained based on change of urination volume obtained by a polygraph apparatus. To a control (treated with CPA) and an intact control (no treatment), the solvent was orally administered, and frequency of urination was counted in the same manner. Improvement rate of pollakiuria induced by the CPA treatment relative to the control was calculated in accordance with the following equation, and ED50 value was further calculated by the probit method based on the improvement rate at each dose. Improvement rate (%)=(Urination frequency of control−Urination frequency observed with test substance)/(Urination frequency of control−Urination frequency of intact control)×100

SMILES | ED50 [mg/kg]
C[C@H](C(=O)O)c1ccc(/C=C2\SCC[C@@H]2O)cc1 [Example 19-C, (2S,3′S)-2-{4-[3-Hydroxythiolan-(Z)-2-ylidenemethyl]phenyl}propionic Acid] | 0.1
CC(C(=O)O)c1ccc(CC2CCCC2=O)cc1 (centres unmarked) [Loxoprofen-Na, reference compound] | 1.8

tested on: gastric mucosa; experiment: Gastric mucosa injury induction action by single oral administration in rats; format: in vivo, rat; details: starved male SD rats, stomach examined after 5 hours, probit method
Experimental: 2. Gastric Mucosa Injury Induction Action by Single Oral Administration in Rats
7-Week old male SD rats were starved for 24 hours, and then used for the test. Five hours after the oral administration of a test substance, the stomach was extracted, and incised along the greater curvature of stomach, and a stomach specimen was fixed in a neutrally buffered 1% formalin solution. The stomach specimen was observed under a stereoscopic microscope, and when specimen had four or more hemorrhagic sores or ulcers having a major axis of 0.5 mm or larger, the result was judged to be positive. […]

SMILES | UD30 value (gastric mucosa injury) [mg/kg]
C[C@H](C(=O)O)c1ccc(/C=C2\SCC[C@@H]2O)cc1 [Example 19-C, (2S,3′S)-2-{4-[3-Hydroxythiolan-(Z)-2-ylidenemethyl]phenyl}propionic Acid] | 13.8
CC(C(=O)O)c1ccc(CC2CCCC2=O)cc1 (centres unmarked) [Loxoprofen-Na, reference compound] | 25.5

tested on: not listed separately; experiment: Safety factor (UD30 gastric mucosa injury / ED50 anti-pollakiuria); format: in vivo; details: SD, rat, in vivo
Text: Safety factor was obtained in accordance with the following equation using the ED50 value and UD30 value obtained in the tests for the anti-pollakiuria effect in CPA-induced rat pollakiuria model and the gastric mucosa injury induction action by single oral administration in rats, respectively. Safety factor=UD30 value (mg/kg) for gastric mucosa injury induction action by single oral administration in rats/ED50 value (mg/kg) for anti-pollakiuria effect in CPA-induced rat pollakiuria model

SMILES | Safety factor
CC(C(=O)O)c1ccc(CC2CCCC2=O)cc1 (centres unmarked) [Loxoprofen-Na, reference compound] | 14

same assay, conditions: UD30 value (mg/kg) / ED50 value (mg/kg), rats

SMILES | Safety factor
C[C@H](C(=O)O)c1ccc(/C=C2\SCC[C@@H]2O)cc1 [Example 19-C, (2S,3′S)-2-{4-[3-Hydroxythiolan-(Z)-2-ylidenemethyl]phenyl}propionic Acid] | 138
